Bounds are passed on as bounds.

For the first experiment, the target named is T1, human CTPS1 (Homo sapiens, UniProt P17812).
T1 sequence (P17812 1-591): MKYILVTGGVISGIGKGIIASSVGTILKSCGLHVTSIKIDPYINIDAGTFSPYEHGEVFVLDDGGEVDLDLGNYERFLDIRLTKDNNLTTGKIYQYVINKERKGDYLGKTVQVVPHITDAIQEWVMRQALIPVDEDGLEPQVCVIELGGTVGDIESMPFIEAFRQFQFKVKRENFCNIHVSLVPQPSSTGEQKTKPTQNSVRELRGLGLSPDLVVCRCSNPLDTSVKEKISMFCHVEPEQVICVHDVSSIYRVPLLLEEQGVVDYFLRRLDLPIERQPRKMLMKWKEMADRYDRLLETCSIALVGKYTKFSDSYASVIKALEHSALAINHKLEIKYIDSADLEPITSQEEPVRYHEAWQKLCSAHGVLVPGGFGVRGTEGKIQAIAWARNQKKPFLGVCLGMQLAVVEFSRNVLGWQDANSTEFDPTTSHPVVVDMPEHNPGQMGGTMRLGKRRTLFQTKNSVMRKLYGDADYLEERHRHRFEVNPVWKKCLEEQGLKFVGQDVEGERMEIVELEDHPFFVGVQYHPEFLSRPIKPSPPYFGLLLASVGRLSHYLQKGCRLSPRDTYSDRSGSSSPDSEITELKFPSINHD
As to the kind of experiment: ADP-Glo assay, human CTPS1 enzyme inhibition. The experiment is classed as biochemical. The settings on record: wild-type human CTPS1 25 nM; ATP 120 μM, UTP 160 μM, GTP 60 μM, L-glutamine 100 μM; 25 degrees C.; read-out: ADP-Glo_WT_hCTPS1—25 nM_IC50 (IC50). A digest of the protocol: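 Full-length tagged human CTPS1 (25 nM) pre-incubated 10 min at 25° C with compound, then 10 min with ATP (120 μM) and UTP (160 μM); reaction started with L-glutamine (100 μM) and GTP (60 μM), 1% DMSO, in HEPES pH 7.4, 10 mM Mg2+, 5 mM KCl, 2 mM DTT. Run within linear phase at 25° C; ADP measured by ADP-Glo luminescence.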
As for `O=C(N[C@H](c1nccc(NS(=O)(=O)C2CC2)c1F)[C@@H]1CCOC1)c1ncc(-c2cnn3ccc(Cl)cc23)s1` (single isomer, unassigned) [II-6], the IC50 lay in the range of 5 to 25 nM.

Staying with this experiment, now noted: wild-type human CTPS1, 25 nM enzyme; ADP-Glo; read-out: ADP-Glo_WT_hCTPS1—25 nM_IC50 (IC50).
For the molecule `O=C(N[C@H](c1cccc(NS(=O)(=O)C(F)F)c1)C1CCOCC1)c1ncc(-c2cnn3ccc(Cl)cc23)s1` [I-196, (S)-5-(5-chloropyrazolo[1,5-a]pyridin-3-yl)-N-((3-((difluoromethyl)sulfonamido)phenyl)(tetrahydro-2H-pyran-4-yl)methyl)thiazole-2-carboxamide], the half-maximal inhibitory concentration (IC50) lay within 5 to 25 nM.
Same read-out and setting: as for `CCOc1cncc(-c2cnc(C(=O)N[C@@H](c3cc(NS(=O)(=O)C4CC4)ccn3)[C@H](C)COC)s2)n1` [I-234, N-((1R,2S)-1-(4-(cyclopropanesulfonamido)pyridin-2-yl)-3-methoxy-2-methylpropyl)-5-(6-ethoxypyrazin-2-yl)thiazole-2-carboxamide], the figure is no more than 5 nM; as for `CCOc1cncc(-c2cnc(C(=O)N[C@H](CN3C[C@H]4CC[C@@H]3C4)c3cc(NS(=O)(=O)C4CC4)ccn3)s2)n1` [I-150, N-((R)-2-((1R,4S)-2-azabicyclo[2.2.1]heptan-2-yl)-1-(4-(cyclopropanesulfonamido)pyridin-2-yl)ethyl)-5-(6-ethoxypyrazin-2-yl)thiazole-2-carboxamide], 5 to 25 nM.
On to `O=C(N[C@H](CCN1CCCCC1)c1cc(NS(=O)(=O)C2CC2)ccn1)c1ncc(-c2cnn3ccc(Cl)cc23)s1` (single isomer, unassigned) [I-10], for which the IC50 lay within 5 to 25 nM.
Same read-out and setting: in the case of `CCOc1cncc(-c2cnc(C(=O)N[C@H](CN3CCN(C4CC4)CC3)c3cc(NS(=O)(=O)C4CC4)ncn3)s2)n1` [I-249, (R)-N-(1-(6-(cyclopropanesulfonamido)pyrimidin-4-yl)-2-(4-cyclopropylpiperazin-1-yl)ethyl)-5-(6-ethoxypyrazin-2-yl)thiazole-2-carboxamide] it was 25 to 50 nM.
Take `CCOc1cncc(-c2cnc(C(=O)N[C@@H](CCN(C)C3CCCCC3)c3cc(NS(=O)(=O)C4CC4)ccn3)s2)n1` (single isomer, unassigned) [I-13]: the IC50 fell in the range of 50 to 100 nM.
Still for that read-out and setting: in the case of `CCOc1cncc(-c2cnc(C(=O)N[C@H](CCNC3CC3)c3cc(NS(=O)(=O)C4CC4)ccn3)s2)n1` [I-186, (R)-N-(1-(4-(cyclopropanesulfonamido)pyridin-2-yl)-3-(cyclopropylamino)propyl)-5-(6-ethoxypyrazin-2-yl)thiazole-2-carboxamide] it was 5 to 25 nM.
For `CCOc1cncc(-c2cnc(C(=O)N[C@H](CN3CCCC3)c3cccc(NS(=O)(=O)C(F)F)c3)s2)n1` (single isomer, unassigned) [I-39], the IC50 was in the range of 25 to 50 nM.
The same measure, in the same setting: in the case of `CCOc1cncc(-c2cnc(C(=O)N[C@@H](c3cc(NS(=O)(=O)C4CC4)ccn3)[C@@H](C)N3C[C@H]4C[C@@H]3CO4)s2)n1` [I-169, N-((1R,2R)-2-((1R,4R)-2-oxa-5-azabicyclo[2.2.1]heptan-5-yl)-1-(4-(cyclopropanesulfonamido)pyridin-2-yl)propyl)-5-(6-ethoxypyrazin-2-yl)thiazole-2-carboxamide] it was 25 to 50 nM.
The same measure, in the same setting: as for `CCOc1cncc(-c2cnc(C(=O)N[C@@H](CN3C[C@H]4C[C@@H](C3)C4)c3cc(NS(=O)(=O)C4CC4)ccn3)s2)n1` [I-151, N-((S)-2-((1R,5R)-3-azabicyclo[3.1.1]heptan-3-yl)-1-(4-(cyclopropanesulfonamido)pyridin-2-yl)ethyl)-5-(6-ethoxypyrazin-2-yl)thiazole-2-carboxamide], the figure is 50 to 100 nM; as for `CCOc1cncc(-c2cnc(C(=O)N[C@H](c3cc(NS(=O)(=O)C4CC4)ncn3)C3CCOCC3)s2)n1` (single isomer, unassigned) [I-254], 5 to 25 nM; as for `CCOc1cncc(-c2cnc(C(=O)N[C@@H](CN3C[C@H]4CC[C@@H]3C4)c3cccc(NS(=O)(=O)C(F)F)c3)s2)n1` [I-210, N-((R)-2-((1R,4S)-2-azabicyclo[2.2.1]heptan-2-yl)-1-(3-((difluoromethyl)sulfonamido)phenyl)ethyl)-5-(6-ethoxypyrazin-2-yl)thiazole-2-carboxamide], 5 to 25 nM.
Same read-out and setting: in the case of `O=C(N[C@@H](c1cc(NS(=O)(=O)C2CC2)ccn1)[C@H]1CCOC1)c1ncc(-c2cnn3ccc(Cl)cc23)s1` (single isomer, unassigned) [I-25] it was 5 to 25 nM; in that of `CCOc1cncc(-c2cnc(C(=O)N[C@H](c3cc(NS(=O)(=O)C4CC4)ccn3)[C@@H]3CCN(C4CC4)C3)s2)n1` [I-113, N-((S)-(4-(cyclopropanesulfonamido)pyridin-2-yl)((R)-1-cyclopropylpyrrolidin-3-yl)methyl)-5-(6-ethoxypyrazin-2-yl)thiazole-2-carboxamide], 5 to 25 nM; in that of `COCC[C@H](NC(=O)c1ncc(-c2cnn3ccc(Cl)cc23)s1)c1cc(NS(=O)(=O)C2CC2)ccn1` (single isomer, unassigned) [I-1], 5 to 25 nM.
For `CCOc1cncc(-c2cnc(C(=O)N[C@@H](CN3CCOC[C@H]3C)c3cc(NS(=O)(=O)C4CC4)ccn3)s2)n1` (single isomer, unassigned) [I-32], the half-inhibitory concentration (IC50) lay in the range of 25 to 50 nM.
Same read-out and setting: as for `CCOc1cncc(-c2cnc(C(=O)N[C@@H](CN3CC[C@@]4(CCOC4)C3)c3cc(NS(=O)(=O)C4CC4)ccn3)s2)n1` [I-125, N-((S)-1-(4-(cyclopropanesulfonamido)pyridin-2-yl)-2-((R)-2-oxa-7-azaspiro[4.4]nonan-7-yl)ethyl)-5-(6-ethoxypyrazin-2-yl)thiazole-2-carboxamide], the figure is 25 to 50 nM; as for `CCOc1cncc(-c2cnc(C(=O)N[C@H](CN3C[C@H]4C[C@@H](C3)C4)c3cc(NS(=O)(=O)C4CC4)ccn3)s2)n1` [I-152, N-((R)-2-((1R,5R)-3-azabicyclo[3.1.1]heptan-3-yl)-1-(4-(cyclopropanesulfonamido)pyridin-2-yl)ethyl)-5-(6-ethoxypyrazin-2-yl)thiazole-2-carboxamide], 5 to 25 nM; as for `CCOc1cncc(-c2cnc(C(=O)N[C@@H](CC(C)(C)N(C)C)c3cc(NS(=O)(=O)C4CC4)ccn3)s2)n1` [I-50, (S)-N-(1-(4-(cyclopropanesulfonamido)pyridin-2-yl)-3-(dimethylamino)-3-methylbutyl)-5-(6-ethoxypyrazin-2-yl)thiazole-2-carboxamide], 5 to 25 nM.
On the same count and under the same terms, in the case of `CCOc1cncc(-c2cnc(C(=O)N[C@H](c3cc(NS(=O)(=O)C4CC4)ccn3)[C@H]3CCCO3)s2)n1` [I-59, N-((R)-(4-(cyclopropanesulfonamido)pyridin-2-yl)((R)-tetrahydrofuran-2-yl)methyl)-5-(6-ethoxypyrazin-2-yl)thiazole-2-carboxamide] it was 25 to 50 nM; in that of `CCOc1cncc(-c2cnc(C(=O)N[C@H](CN3CCOC[C@H]3C)c3cc(NS(=O)(=O)C4CC4)ccn3)s2)n1` (single isomer, unassigned) [I-33], 5 to 25 nM; in that of `CCOc1cncc(-c2cnc(C(=O)N[C@@H](CN3C[C@H]4CC[C@@H]3C4)c3cc(NS(=O)(=O)C4CC4)ccn3)s2)n1` [I-149, N-((S)-2-((1R,4S)-2-azabicyclo[2.2.1]heptan-2-yl)-1-(4-(cyclopropanesulfonamido)pyridin-2-yl)ethyl)-5-(6-ethoxypyrazin-2-yl)thiazole-2-carboxamide], 50 to 100 nM.
As to `CCOc1cncc(-c2cnc(C(=O)N[C@@H](CN3CCCOCC3)c3cc(NS(=O)(=O)C4CC4)ccn3)s2)n1` [I-134, (S)-N-(1-(4-(cyclopropanesulfonamido)pyridin-2-yl)-2-(1,4-oxazepan-4-yl)ethyl)-5-(6-ethoxypyrazin-2-yl)thiazole-2-carboxamide], the IC50 was 5 to 25 nM.
Take `CCOc1cncc(-c2cnc(C(=O)N[C@H](c3cc(NS(=O)(=O)C4CC4)ccn3)[C@H]3C[C@H]4CC[C@@H]3O4)s2)n1` [I-83, N-((S)-((1S,2R,4R)-7-oxabicyclo[2.2.1]heptan-2-yl)(4-(cyclopropanesulfonamido)pyridin-2-yl)methyl)-5-(6-ethoxypyrazin-2-yl)thiazole-2-carboxamide]: the IC50 was 5 to 25 nM.
For `CCOc1cncc(-c2cnc(C(=O)N[C@@H](c3cc(NS(=O)(=O)C4CC4)ccn3)C(C)(C)O)s2)n1` [I-275, (S)-N-(1-(4-(cyclopropanesulfonamido)pyridin-2-yl)-2-hydroxy-2-methylpropyl)-5-(6-ethoxypyrazin-2-yl)thiazole-2-carboxamide], the IC50 was in the range of 25 to 50 nM.
Still for that read-out and setting: in the case of `CCOc1cncc(-c2cnc(C(=O)N[C@@H](c3cc(NS(=O)(=O)C4CC4)ccn3)[C@@H](C)O)s2)n1` [I-265, N-((1S,2R)-1-(4-(cyclopropanesulfonamido)pyridin-2-yl)-2-hydroxypropyl)-5-(6-ethoxypyrazin-2-yl)thiazole-2-carboxamide] it was 5 to 25 nM.

Values taken from US20250270200A1, “CTPS1 INHIBITORS AND USES THEREOF” (Nimbus Clotho, Inc., priority 2022, published 2025).
